{"source": "patent US20040219112A1", "about": "“Method of whitening teeth, tooth whitening composition and tooth whitening set” (priority 2001, published 2004)", "key": {"[1]": {"assay": "Whitening of extracted human tooth enclosed in absorbent cotton impregnated with liquid compound (100%), L*a*b* (CIE) whiteness", "settings": "compound conc. 100%; for Effect (2): prolonged effect, whiteness (Δ|L|+Δ|b|) of the tooth: measured after immersion in water (10 ml, 37° C.) for 1 hour; for Effect (1): whiteness (Δ|L|+Δ|b|) of the tooth: measured immediately after immersion in the compound for 1 hour at 37° C.; for Result (prolonged effect rating): rating of prolonged effect after 1 hour in water", "experimental": "(§1) An experiment was conducted as follows with an extracted human tooth which had previously been examined for L*a*b* values (CIE). The tooth was enclosed in absorbent cotton impregnated with a liquid compound (in 100% concentration) shown below, and the resulting object was allowed to stand at 37° C. for 1 hour in a closed glass bottle. The tooth was examined again for L*a*b* values (CIE). The ΔL and Δb values measured before and after treatment were used to calculate the whiteness (Δ|L|+Δ|b|) of the tooth, which is a measure of the effect (1).\n(§2) The tooth which had been processed as mentioned above was again allowed to stand at 37° C. for 1 hour in a closed glass bottle containing 10 ml of water at 37° C. Then, the tooth was examined again for L*a*b* values (CIE). The ΔL and Δb values measured before and after treatment were used to calculate the whiteness (Δ|L|+Δ|b|) of the tooth, which is a measure of the prolonged effect (2)."}, "[2]": {"assay": "Whitening of extracted human tooth enclosed in PP non-woven sheet coated with gel of 50% whitening compound, L*a*b* (CIE) whiteness", "design": "key to Effect (3): whiteness (Δ|L|+Δ|b|) of the tooth / Effect (4): prolonged effect, whiteness (Δ|L|+Δ|b|) of the tooth: whiteness = Δ|L|+Δ|b| (CIE L*a*b*), change before vs after treatment", "settings": "gel of 50% compound; for Effect (4): prolonged effect, whiteness (Δ|L|+Δ|b|) of the tooth / Effect (3): whiteness (Δ|L|+Δ|b|) of the tooth: 0.5% jellan gum, 49.5% water; for Effect (4): prolonged effect, whiteness (Δ|L|+Δ|b|) of the tooth: measured after immersion in water (10 ml, 37° C.) for 1 hour; for Effect (3): whiteness (Δ|L|+Δ|b|) of the tooth: measured immediately after 1 hour at 37° C.; for Result (prolonged effect rating): rating of prolonged effect after 1 hour in water", "experimental": "as §1, with “a sheet of non-woven fabric of PP coated” for “absorbent cotton impregnated”, “gel composed of 50% of the whitening” for “liquid”, “specified” for “(in 100% concentration) shown”, “below, 0.5% of jellan gum, and 49.5% of water,” for “below,”, “(3).” for “(1).”\nas §2, with “(4).” for “(2).”"}}, "data": [{"compound": "CC(O)CCO", "note": "(stereo not drawn) [1,3-butylene glycol]", "values": [{"measurement": "Effect (2): prolonged effect, whiteness (Δ|L|+Δ|b|) of the tooth", "setting": "[1]", "value": 5.6}, {"measurement": "Effect (1): whiteness (Δ|L|+Δ|b|) of the tooth", "setting": "[1]", "value": 11.3}, {"measurement": "Result (prolonged effect rating)", "setting": "[1]", "value": "⊚ (⊚ denotes a significant prolonged effect with a value larger than 1)"}, {"measurement": "Effect (4): prolonged effect, whiteness (Δ|L|+Δ|b|) of the tooth", "setting": "[2]", "value": 0.5}, {"measurement": "Effect (3): whiteness (Δ|L|+Δ|b|) of the tooth", "setting": "[2]", "value": 0.9}, {"measurement": "Result (prolonged effect rating)", "setting": "[2]", "value": "◯ (◯ denotes a prolonged effect with a value larger than 0.5)"}]}, {"compound": "OCCOCCO", "note": "[Diethylene glycol]", "values": [{"measurement": "Effect (2): prolonged effect, whiteness (Δ|L|+Δ|b|) of the tooth", "setting": "[1]", "value": 2.6}, {"measurement": "Effect (1): whiteness (Δ|L|+Δ|b|) of the tooth", "setting": "[1]", "value": 14.4}, {"measurement": "Result (prolonged effect rating)", "setting": "[1]", "value": "⊚ (⊚ denotes a significant prolonged effect with a value larger than 1)"}, {"measurement": "Effect (4): prolonged effect, whiteness (Δ|L|+Δ|b|) of the tooth", "setting": "[2]", "value": 1.1}, {"measurement": "Effect (3): whiteness (Δ|L|+Δ|b|) of the tooth", "setting": "[2]", "value": 1.3}, {"measurement": "Result (prolonged effect rating)", "setting": "[2]", "value": "⊚ (⊚ denotes a significant prolonged effect with a value larger than 1)"}]}, {"compound": "CCO", "note": "[Ethanol]", "values": [{"measurement": "Effect (2): prolonged effect, whiteness (Δ|L|+Δ|b|) of the tooth", "setting": "[1]", "value": 3.0}, {"measurement": "Effect (1): whiteness (Δ|L|+Δ|b|) of the tooth", "setting": "[1]", "value": 12.8}, {"measurement": "Result (prolonged effect rating)", "setting": "[1]", "value": "⊚ (⊚ denotes a significant prolonged effect with a value larger than 1)"}, {"measurement": "Effect (4): prolonged effect, whiteness (Δ|L|+Δ|b|) of the tooth", "setting": "[2]", "value": 1.9}, {"measurement": "Effect (3): whiteness (Δ|L|+Δ|b|) of the tooth", "setting": "[2]", "value": 1.5}, {"measurement": "Result (prolonged effect rating)", "setting": "[2]", "value": "⊚ (⊚ denotes a significant prolonged effect with a value larger than 1)"}]}, {"compound": "OCCO", "note": "[Ethylene glycol]", "values": [{"measurement": "Effect (2): prolonged effect, whiteness (Δ|L|+Δ|b|) of the tooth", "setting": "[1]", "value": 2.6}, {"measurement": "Effect (1): whiteness (Δ|L|+Δ|b|) of the tooth", "setting": "[1]", "value": 9.3}, {"measurement": "Result (prolonged effect rating)", "setting": "[1]", "value": "⊚ (⊚ denotes a significant prolonged effect with a value larger than 1)"}, {"measurement": "Effect (4): prolonged effect, whiteness (Δ|L|+Δ|b|) of the tooth", "setting": "[2]", "value": 0.7}, {"measurement": "Effect (3): whiteness (Δ|L|+Δ|b|) of the tooth", "setting": "[2]", "value": 1.6}, {"measurement": "Result (prolonged effect rating)", "setting": "[2]", "value": "◯ (◯ denotes a prolonged effect with a value larger than 0.5)"}]}, {"compound": "CC(C)O", "note": "[Isopropyl alcohol]", "values": [{"measurement": "Effect (2): prolonged effect, whiteness (Δ|L|+Δ|b|) of the tooth", "setting": "[1]", "value": 8.3}, {"measurement": "Effect (1): whiteness (Δ|L|+Δ|b|) of the tooth", "setting": "[1]", "value": 15.8}, {"measurement": "Result (prolonged effect rating)", "setting": "[1]", "value": "⊚ (⊚ denotes a significant prolonged effect with a value larger than 1)"}, {"measurement": "Effect (4): prolonged effect, whiteness (Δ|L|+Δ|b|) of the tooth", "setting": "[2]", "value": 0.5}, {"measurement": "Effect (3): whiteness (Δ|L|+Δ|b|) of the tooth", "setting": "[2]", "value": 1.1}, {"measurement": "Result (prolonged effect rating)", "setting": "[2]", "value": "◯ (◯ denotes a prolonged effect with a value larger than 0.5)"}]}, {"compound": "CC(O)CO", "note": "(stereo not drawn) [Propylene glycol]", "values": [{"measurement": "Effect (2): prolonged effect, whiteness (Δ|L|+Δ|b|) of the tooth", "setting": "[1]", "value": 2.8}, {"measurement": "Effect (1): whiteness (Δ|L|+Δ|b|) of the tooth", "setting": "[1]", "value": 8.4}, {"measurement": "Result (prolonged effect rating)", "setting": "[1]", "value": "⊚ (⊚ denotes a significant prolonged effect with a value larger than 1)"}, {"measurement": "Effect (4): prolonged effect, whiteness (Δ|L|+Δ|b|) of the tooth", "setting": "[2]", "value": 1.0}, {"measurement": "Effect (3): whiteness (Δ|L|+Δ|b|) of the tooth", "setting": "[2]", "value": 1.0}, {"measurement": "Result (prolonged effect rating)", "setting": "[2]", "value": "⊚ (⊚ denotes a significant prolonged effect with a value larger than 1)"}]}, {"compound": "PEG #300", "values": [{"measurement": "Effect (2): prolonged effect, whiteness (Δ|L|+Δ|b|) of the tooth", "setting": "[1]", "value": 3.7}, {"measurement": "Effect (1): whiteness (Δ|L|+Δ|b|) of the tooth", "setting": "[1]", "value": 10.7}, {"measurement": "Result (prolonged effect rating)", "setting": "[1]", "value": "⊚ (⊚ denotes a significant prolonged effect with a value larger than 1)"}, {"measurement": "Effect (4): prolonged effect, whiteness (Δ|L|+Δ|b|) of the tooth", "setting": "[2]", "value": 0.8}, {"measurement": "Effect (3): whiteness (Δ|L|+Δ|b|) of the tooth", "setting": "[2]", "value": 1.8}, {"measurement": "Result (prolonged effect rating)", "setting": "[2]", "value": "◯ (◯ denotes a prolonged effect with a value larger than 0.5)"}]}, {"compound": "Polyethylene glycol #200 [PEG #200]", "values": [{"measurement": "Effect (2): prolonged effect, whiteness (Δ|L|+Δ|b|) of the tooth", "setting": "[1]", "value": 4.8}, {"measurement": "Effect (1): whiteness (Δ|L|+Δ|b|) of the tooth", "setting": "[1]", "value": 12.5}, {"measurement": "Result (prolonged effect rating)", "setting": "[1]", "value": "⊚ (⊚ denotes a significant prolonged effect with a value larger than 1)"}, {"measurement": "Effect (4): prolonged effect, whiteness (Δ|L|+Δ|b|) of the tooth", "setting": "[2]", "value": 0.9}, {"measurement": "Effect (3): whiteness (Δ|L|+Δ|b|) of the tooth", "setting": "[2]", "value": 0.6}, {"measurement": "Result (prolonged effect rating)", "setting": "[2]", "value": "◯ (◯ denotes a prolonged effect with a value larger than 0.5)"}]}, {"compound": "Polyethylene glycol #400 [PEG #400]", "values": [{"measurement": "Effect (2): prolonged effect, whiteness (Δ|L|+Δ|b|) of the tooth", "setting": "[1]", "value": 1.5}, {"measurement": "Effect (1): whiteness (Δ|L|+Δ|b|) of the tooth", "setting": "[1]", "value": 8.1}, {"measurement": "Result (prolonged effect rating)", "setting": "[1]", "value": "⊚ (⊚ denotes a significant prolonged effect with a value larger than 1)"}, {"measurement": "Effect (4): prolonged effect, whiteness (Δ|L|+Δ|b|) of the tooth", "setting": "[2]", "value": 0.6}, {"measurement": "Effect (3): whiteness (Δ|L|+Δ|b|) of the tooth", "setting": "[2]", "value": 0.7}, {"measurement": "Result (prolonged effect rating)", "setting": "[2]", "value": "◯ (◯ denotes a prolonged effect with a value larger than 0.5)"}]}, {"compound": "Polyethylene glycol #600 [PEG #600]", "values": [{"measurement": "Effect (2): prolonged effect, whiteness (Δ|L|+Δ|b|) of the tooth", "setting": "[1]", "value": 0.6}, {"measurement": "Effect (1): whiteness (Δ|L|+Δ|b|) of the tooth", "setting": "[1]", "value": 12.0}, {"measurement": "Result (prolonged effect rating)", "setting": "[1]", "value": "◯ (◯ denotes a prolonged effect with a value larger than 0.5)"}, {"measurement": "Effect (4): prolonged effect, whiteness (Δ|L|+Δ|b|) of the tooth", "setting": "[2]", "value": 0.8}, {"measurement": "Effect (3): whiteness (Δ|L|+Δ|b|) of the tooth", "setting": "[2]", "value": 0.7}, {"measurement": "Result (prolonged effect rating)", "setting": "[2]", "value": "◯ (◯ denotes a prolonged effect with a value larger than 0.5)"}]}]}
